Measurements published in patent US20210322375A1, “COMBINATION DRUG FORMULATIONS FOR TREATING PATIENTS WITH CARDIOVASCULAR DISEASE AND ASSOCIATED CONDITIONS” (Esperion Therapeutics, Inc., priority 2018, published 2021).
“Also recorded” adds a separate entry of the source. Marks after values point to notes of the source that are not given here.

Assays:
[1] = tested on: high cardiovascular risk patients; test: Phase 3 clinical trial study: LDL-C and hsCRP lowering; format: in vivo, human; details: ETC-1002 monotherapy
[2] = tested on: hypercholesterolemic patients; test: Phase 2b randomized double-blind trial: percent change from baseline to week 12 in lipids and CRP; format: in vivo, human; details: for LDL-C reduction: baseline to week 12; for Apolipoprotein A-I, percent change from baseline to week 12 / Apolipoprotein B, percent change from baseline to week 12 / HDL particle number, percent change from baseline to week 12 / HDL-C, percent change from baseline to week 12 / LDL particle number, percent change from baseline to week 12 / LDL-C, percent change from baseline to week 12 / Non-HDL-C, percent change from baseline to week 12 / Total cholesterol, percent change from baseline to week 12: LS mean ± SE; for CRP, percent change from baseline to week 12 / Triglycerides, percent change from baseline to week 12 / VLDL particle number, percent change from baseline to week 12: median (interquartile range)
Description: Brief Description of Clinical Study and Results.
Study Objectives. The primary objective was to assess the LDL-C-lowering effect of ETC-1002 monotherapy (120 mg or 180 mg daily) versus EZE monotherapy in hypercholesterolemic patients with or without statin intolerance. Secondary objectives were to characterize the dose response of ETC-1002, evaluate the impact of treatment on other lipid and cardiometabolic biomarkers, compare the LDL-C-lowering effect of ETC-1002 plus EZE combination therapy with EZE monotherapy, and characterize the safety and tolerability of the treatment regimens, including muscle-related adverse events (AEs).
Overall Study Design and Plan. […] 16, 2013 to Aug.
LDL-C was calculated using the Friedewald equation.
Efficacy Endpoints. The primary endpoint was the percent change from baseline to week 12 in calculated LDL-C in patients treated with ETC-1002 monotherapy versus those treated with EZE alone. Secondary endpoints included the dose-response relationship between ETC-1002 and the percent change in LDL-C from baseline to week 12, the percent change in LDL-C from baseline to week 12 in patients treated with ETC-1002 plus EZE versus those treated with EZE alone, and the percent change from baseline to week 12 for all treatment groups in LDL particle number, apolipoprotein B, total cholesterol, non-high-density lipoprotein cholesterol (non-HDL-C), HDL-C, HDL particle number, apolipoprotein A-I, triglycerides, very-low-density lipoprotein (VLDL) particle number, and high-sensitivity C-reactive protein (CRP). Lipoprotein particle number was measured using nuclear magnetic resonance […].
Statistical Plan and Analyses. The study was designed to include 322 patients: 92 patients in each monotherapy group and 23 patients in each combination therapy group. Sample size calculations were performed using nQuery Advisor® version 7.0 (Statistical Solutions, Cork, Ireland). The sample size of 92 patients per monotherapy group was expected to provide 90% power to detect a difference of 10% in the absolute percent change from baseline to week 12 in LDL-C between either ETC-1002 treatment group and the EZE monotherapy group. This calculation was based on a 2-sided t test at the 5% level of significance and assumed a common standard deviation of 15% in the statin-tolerant patients and 22% in the statin-intolerant patients with a dropout rate of 15%.
An analysis of covariance was used to compare each ETC-1002 treatment group with EZE monotherapy for each of the efficacy endpoints. The primary model included the effects of treatment and statin intolerance and the baseline value as a covariate. Baseline was defined as the mean of values from weeks −1 and 0 for LDL-C, non-HDL-C, total cholesterol, HDL-C, and triglycerides. For all other lipid and biomarker measures, baseline was defined as the last value before the first dose of study drug. Missing values at week 12 were imputed using the last-observation-carried-forward procedure. When LDL-C could not be calculated (i.e., triglycerides >400 mg/dL), beta-quantification measurements were used to determine LDL-C values. Least-squares (LS) means and standard errors were obtained for each treatment group; differences in LS means and p-values were obtained for the treatment comparisons. Graphical methods (e.g., normal probability plot and histogram of residuals, plot of residuals vs. predicted values) or analytical methods (e.g., Shapiro-Wilk test), or both, were used to assess the model assumptions. Because of departures from normality observed in the parameters of triglycerides, CRP, and VLDL particle number, nonparametric analyses were performed for these measures, with p-values obtained from the Wilcoxon rank-sum test and median values presented.
Percent changes from baseline in LDL-C also were summarized by statin-tolerance subgroup. […]

[3] = tested on: high cardiovascular risk patients; test: Phase 3 clinical trial study: safety and tolerability; details: human, in vivo
Text: In a phase 3 clinical trial study consisting of 382 high cardiovascular risk patients who are receiving maximally tolerated statin therapy, treatment of ETC-1002 in combination with Ezetimibe provided clinically and statistically significant lowering of both LDL-C and hsCRP levels by about 35% and about 34% respectively. For patients who are on maximally tolerated statins and received the combination therapy of ETC-1002 and Ezetimibe, no increases in muscle-related adverse effects and no elevations in liver function tests were observed as compared to patients receiving the placebo treatment.

[4] = tested on: hypercholesterolemic patients; test: Phase 2b trial: treatment-emergent adverse events and laboratory safety
Description: Study Population. Medically stable, hypercholesterolemic men and women aged 18 through 80 years with a body mass index between 18 to 45 kg/m^2 were included in the study. […] The study population included both statin-tolerant and statin-intolerant participants. Statin intolerance was defined as the inability to tolerate ≥2 statins because of muscle-related symptoms such as pain, weakness, or cramping that began or increased during statin therapy and resolved on statin discontinuation. At least 1 statin must have been administered at the lowest approved daily dose, defined as rosuvastatin 5 mg, atorvastatin 10 mg, simvastatin 10 mg, lovastatin 20 mg, pravastatin 40 mg, fluvastatin 40 mg, or pitavastatin 2 mg. Treatment with less than the lowest approved daily dose of a statin (i.e., skipping days) was considered equivalent to not tolerating 1 statin at the lowest approved daily dose.
Overall Study Design and Plan. […] Patients underwent a 5-week washout of all lipid-regulating drugs and dietary supplements and abstained from these drugs and supplements throughout the study. Patients also underwent a 5-week patient-only-blinded placebo run-in during the screening period (week −5 to week 0). This single-blind placebo run-in period was used to eliminate patients with muscle-related AEs during placebo treatment. Patients reporting new or worsening, unexplained muscle-related AEs during this run-in period were excluded from the study.
Patients were stratified (1:1) by history of statin intolerance and randomized at week 0 in a 4:4:4:1:1 ratio to once-daily treatment with capsules containing ETC-1002 120 mg, ETC-1002 180 mg, EZE, ETC-1002 120 mg plus EZE, or ETC-1002 180 mg plus EZE. […] A contract laboratory (Medpace Inc., Cincinnati, Ohio), performed all clinical laboratory tests. LDL-C was calculated using the Friedewald equation. Phlebotomy was performed after a minimum 12-hour fast (water was allowed) and only if the patient took their dose of study drug the previous day.
Safety Endpoints. The safety of ETC-1002 was assessed using treatment-emergent AEs; hematology, serum chemistry, and urinalysis laboratory values; physical examination findings; vital sign measurements; electrocardiogram (ECG) readings; weight; and ankle and waist circumference measurements. AEs were coded using the Medical Dictionary for Regulatory Activities version 16.0 and evaluated by the investigator for severity and relation to study drug. Muscle-related AEs were defined as those from the system organ class of musculoskeletal and connective tissue disorders, except for those that were not obviously muscle related. Terms included in the muscle-related AE analysis were selected from this system organ class after database lock and before unblinding.
Safety analyses were performed on the safety population, which included randomized patients who received at least 1 dose of study drug. Baseline patient characteristics were summarized for the safety population by treatment group and statin-tolerance subgroup.
Muscle-related AEs also were summarized by statin-tolerance subgroup.

[5] = ETC-1002 120 mg daily, mITT n = 97
[6] = ETC-1002 180 mg daily, mITT n = 99
[7] = ETC-1002 120 mg daily, safety population n = 99
[8] = ETC-1002 180 mg daily, safety population n = 100
[9] = statin-intolerant patients, ETC-1002 120 mg, n = 51
[10] = statin-intolerant patients, ETC-1002 180 mg, n = 51
[11] = statin-tolerant patients, ETC-1002 120 mg, n = 48
[12] = statin-tolerant patients, ETC-1002 180 mg, n = 49

CC(C)(CCCCCC(O)CCCCCC(C)(C)C(=O)O)C(=O)O [ETC-1002, 8-hydroxy-2,2,14,14 tetramethylpentadecanedioic acid]
LDL-C lowering ([1]; patients not receiving background statin therapy): ≥ 30% | LDL-C lowering ([1]; patients receiving background statin therapy): ≥ 20% | hsCRP lowering ([1]; patients receiving maximally tolerated statin therapy): 22-40% | CRP decrease from baseline to week 12 endpoint, median ([2]; ETC-1002 120 mg): 30% | LDL-C reduction ([2]; ETC-1002 120 mg alone): 27% | Apolipoprotein A-I, percent change from baseline to week 12 [2, 5]: −0.2 ± 1.1% | Apolipoprotein B, percent change from baseline to week 12 [2, 5]: −19.3 ± 1.3 % | HDL particle number, percent change from baseline to week 12 [2, 5]: 5.0 ± 1.3% | HDL-C, percent change from baseline to week 12 [2, 5]: −5.8 ± 1.4 % | LDL particle number, percent change from baseline to week 12 [2, 5]: −21.8 ± 1.7 % | LDL-C, percent change from baseline to week 12 [2, 5]: −27.5 ± 1.3 % | Non-HDL-C, percent change from baseline to week 12 [2, 5]: −23.2 ± 1.2 % | Total cholesterol, percent change from baseline to week 12 [2, 5]: −19.3 ± 0.9 % | CRP, percent change from baseline to week 12 [2, 5]: −30.1 (55.4)† % | Triglycerides, percent change from baseline to week 12 [2, 5]: 0.0 (41.6) % | VLDL particle number, percent change from baseline to week 12 [2, 5]: −2.7 (68.5) % | CRP decrease from baseline to week 12 endpoint, median ([2]; ETC-1002 180 mg): 40% | LDL-C reduction ([2]; ETC-1002 180 mg alone): 30% | Apolipoprotein A-I, percent change from baseline to week 12 [2, 6]: 0.1 ± 1.2% | Apolipoprotein B, percent change from baseline to week 12 [2, 6]: −21.3 ± 1.3 % | HDL particle number, percent change from baseline to week 12 [2, 6]: 6.2 ± 1.4% | HDL-C, percent change from baseline to week 12 [2, 6]: −4.8 ± 1.4 % | LDL particle number, percent change from baseline to week 12 [2, 6]: −24.6 ± 1.8 % | LDL-C, percent change from baseline to week 12 [2, 6]: −30.1 ± 1.3 % | Non-HDL-C, percent change from baseline to week 12 [2, 6]: −25.3 ± 1.1 % | Total cholesterol, percent change from baseline to week 12 [2, 6]: −20.7 ± 0.9 % | CRP, percent change from baseline to week 12 [2, 6]: −40.2 (53.3)† % | Triglycerides, percent change from baseline to week 12 [2, 6]: −2.7 (46.2) % | VLDL particle number, percent change from baseline to week 12 [2, 6]: 15.3 (80.5) % | LDL-C reduction, ETC-1002 alone (maximum) ([2]; ETC-1002 monotherapy 120 mg or 180 mg): up to 30% | Increases in muscle-related adverse effects or serious adverse effects [3]: without any increases | Tolerability [3]: well tolerated and safe | ALT or AST, or both, increased >3 times the upper limit of normal at any measurement ([4]; ETC-1002 120 mg): 1 patient | Myalgia, patients, entire study population ([4]; ETC-1002 120 mg): 3% | Serious AE reported (event) ([4]; ETC-1002 120 mg): hemothorax; also recorded: sudden death | ALT increased, patients [4, 7]: 0 n (%) | AST increased, patients [4, 7]: 0 n (%) | Any AE(s), patients [4, 7]: 50 (51%) n (%) | Arthralgia, patients [4, 7]: 4 (4%) n (%) | Back pain, patients [4, 7]: 1 (1%) n (%) | Blood CK increased, patients [4, 7]: 1 (1%) n (%) | Constipation, patients [4, 7]: 3 (3%) n (%) | Discontinuation due to AE(s), patients [4, 7]: 3 (3%) n (%) | Headache, patients [4, 7]: 3 (3%) n (%) | Myalgia, patients [4, 7]: 3 (3%) n (%) | Nasopharyngitis, patients [4, 7]: 3 (3%) n (%) | Serious AE(s), patients [4, 7]: 2 (2%) n (%) | Study drug-related AE(s), patients [4, 7]: 13(13%) n (%) | Upper respiratory tract infection, patients [4, 7]: 6 (6%) n (%) | Urinary tract infection, patients [4, 7]: 0 n (%) | ALT or AST, or both, increased >3 times the upper limit of normal at any measurement ([4]; ETC-1002 180 mg): 2 patients | Myalgia, patients, entire study population ([4]; ETC-1002 180 mg): 1% | Serious AE reported (event) ([4]; ETC-1002 180 mg): pancreatitis relapse | ALT increased, patients [4, 8]: 0 n (%) | AST increased, patients [4, 8]: 0 n (%) | Any AE(s), patients [4, 8]: 55 (55%) n (%) | Arthralgia, patients [4, 8]: 1 (1%) n (%) | Back pain, patients [4, 8]: 1 (1%) n (%) | Blood CK increased, patients [4, 8]: 4 (4%) n (%) | Constipation, patients [4, 8]: 1 (1%) n (%) | Discontinuation due to AE(s), patients [4, 8]: 6 (6%) n (%) | Headache, patients [4, 8]: 2 (2%) n (%) | Myalgia, patients [4, 8]: 1 (1%) n (%) | Nasopharyngitis, patients [4, 8]: 5 (5%) n (%) | Serious AE(s), patients [4, 8]: 1 (1%) n (%) | Study drug-related AE(s), patients [4, 8]: 18 (18%) n (%) | Upper respiratory tract infection, patients [4, 8]: 6 (6%) n (%) | Urinary tract infection, patients [4, 8]: 4 (4%) n (%) | Any muscle-related AE, patients [4, 9]: 7 (14%) n (%) | Muscle spasms, patients [4, 9]: 3 (6%) n (%) | Muscle-related AE leading to discontinuation, patients [4, 9]: 1 (2%) n (%) | Muscular weakness, patients [4, 9]: 2 (4%) n (%) | Musculoskeletal chest pain, patients [4, 9]: 0 n (%) | Musculoskeletal stiffness, patients [4, 9]: 0 n (%) | Myalgia, patients [4, 9]: 2 (4%) n (%) | Pain in extremity, patients [4, 9]: 1 (2%) n (%) | Sensation of heaviness, patients [4, 9]: 0 n (%) | Any muscle-related AE, patients [4, 10]: 6 (12%) n (%) | Muscle spasms, patients [4, 10]: 2 (4%) n (%) | Muscle-related AE leading to discontinuation, patients [4, 10]: 2 (4%) n (%) | Muscular weakness, patients [4, 10]: 1 (2%) n (%) | Musculoskeletal chest pain, patients [4, 10]: 1 (2%) n (%) | Musculoskeletal stiffness, patients [4, 10]: 0 n (%) | Myalgia, patients [4, 10]: 1 (2%) n (%) | Pain in extremity, patients [4, 10]: 1 (2%) n (%) | Sensation of heaviness, patients [4, 10]: 0 n (%) | Any muscle-related AE, patients [4, 11]: 1 (2%) n (%) | Muscle spasms, patients [4, 11]: 0 n (%) | Muscle-related AE leading to discontinuation, patients [4, 11]: 0 n (%) | Musculoskeletal pain, patients [4, 11]: 0 n (%) | Myalgia, patients [4, 11]: 1 (2%) n (%) | Any muscle-related AE, patients [4, 12]: 0 n (%) | Muscle spasms, patients [4, 12]: 0 n (%) | Muscle-related AE leading to discontinuation, patients [4, 12]: 0 n (%) | Musculoskeletal pain, patients [4, 12]: 0 n (%) | Myalgia, patients [4, 12]: 0 n (%)
